According to patent US20260272895A1, “METHODS AND KITS FOR DELIVERY OF COMPOUNDS INTO CELLS” (Yale University, priority 2023, published 2026):

Target: T1, SLCO1A2 (Homo sapiens, UniProt P46721)
T1 sequence (P46721 1-670): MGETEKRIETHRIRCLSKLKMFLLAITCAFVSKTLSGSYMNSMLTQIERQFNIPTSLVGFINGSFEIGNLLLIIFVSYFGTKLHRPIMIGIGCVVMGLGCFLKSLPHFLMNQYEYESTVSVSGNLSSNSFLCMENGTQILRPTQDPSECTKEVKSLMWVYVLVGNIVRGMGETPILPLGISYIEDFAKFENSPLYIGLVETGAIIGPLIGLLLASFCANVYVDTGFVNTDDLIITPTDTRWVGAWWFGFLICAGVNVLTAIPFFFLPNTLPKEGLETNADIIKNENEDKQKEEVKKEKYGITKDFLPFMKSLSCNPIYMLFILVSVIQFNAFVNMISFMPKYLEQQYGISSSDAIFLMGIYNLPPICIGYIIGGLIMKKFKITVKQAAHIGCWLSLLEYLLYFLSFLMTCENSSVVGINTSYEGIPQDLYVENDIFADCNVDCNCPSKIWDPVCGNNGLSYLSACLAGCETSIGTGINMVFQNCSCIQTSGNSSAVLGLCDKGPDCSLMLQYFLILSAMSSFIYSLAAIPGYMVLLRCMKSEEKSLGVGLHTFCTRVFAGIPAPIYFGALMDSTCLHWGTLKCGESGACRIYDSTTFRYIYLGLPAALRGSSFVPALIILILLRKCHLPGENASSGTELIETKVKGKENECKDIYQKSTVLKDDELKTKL
Test: Uptake by cells ectopically expressing SLCO1A2 (in utero electroporation or AAV8) in live mice
Assay type: in vivo, mouse
Parameters: P2A:EGFP (AAV8 construct only; EGFP is separated at P2A) (C, cleaved yes); FLAG (in utero electroporation plasmid only); host or cells: cortical neurons of live mice (AAV8 subarachnoid infusion or in utero electroporation)
Conditions: topical cortical administration (50 μM where stated)
Experimental: IUE is performed at E14 or E15 as previously done. Briefly, timed pregnant mice are anaesthetized with ketamine/xylazine. The abdominal region is shaved, sterilized and a 3 cm midline incision is made in the skin and abdominal muscle. The uterine horns are exposed, and the lateral ventricle of each embryo is pressure injected (Picospritzer II, General Valve) with plasmid DNA (~[…] volume per embryo) at a concentration of […] followed by electroporation with tweezertrodes (50 V, 4-50 ms pulses with I s pulse interval. BTX Harvard Apparatus). The embryos are placed back in the mother womb, and the muscle and skin are sutured. Electroporated pups are aged to postnatal day 30. Imaging is performed through a craniotomy over the transfected hemisphere following dye labeling.
The Adeno-associated virus (AAV) for expression of SLCO1A2 was custom-made (VectorBuilders). Briefly, The AAV8 virus carrying the pAAV-CAG>hSLCO1A2:P2A:EGFP construct was produced by cloning the hSLCO1A2 gene variant downstream of the CAG promoter in the pAAV8 expression vector. A P2A sequence was inserted to link the hSLCO1A2 gene with the EGFP coding sequence. The constructed vector was transfected into HEK293 cells, and the virus produced was harvested and ultra-purified for a final titer >10^13 GC/mL. AAV virus were injected into the mouse subarachnoid space using a previously described method. Briefly, mice were anesthetized with ketamine-xylazine. A skull window, approximately 1 mm in diameter, was created using a high-speed drill at coordinates 6 mm anteroposterior and 3 mm mediolateral from bregma. Subsequently, a 30-gauge needle was carefully used to lift a small piece of thinned skull, exposing the underlying dura. The stock solutions of AAV were diluted in fresh sterile phosphate-buffered saline (PBS) solution (1:20, v/v) at room temperature, then kept on ice and adjusted to a titer of 10^12 GC/mL. The AAV solutions were loaded into a Tygon tube, connected to a polypropylene tip with an outer diameter of 70 μm, which was further attached to a programmable syringe pump with a Hamilton syringe. […]

| Compound | uptake by neurons ectopically expressing SLCO1A2 | uptake by neurons ectopically expressing SLCO1A2 (listed as Colchicine-eEDITS) | uptake by neurons ectopically expressing SLCO1A2 (listed as Colchicine-eEDiTS) |
| --- | --- | --- | --- |
| O=S(=O)([O-])c1cc(S(=O)(=O)O)ccc1C1=c2cc3c4c(c2Oc2cc(Br)ccc21)CCC[N+]=4CCC3 [Compound 1, 2-(12-bromo-1,2,3,5,6,7-hexahydrochromeno[2,3-f]pyrido[3,2,1-ij]quinolin-4-ium-9-yl)-5-sulfobenzenesulfonate] | only those cells that express SLCO1A2 or SLCO1A4 (as evidenced by the GFP fluorescence (green)) take up compound 1 |  |  |
| COc1cc2c(c(OC)c1OC)-c1ccc(OC)c(=O)cc1C(NS(=O)(=O)c1ccc(-c3c4ccc(N(C)C)cc4[o+]c4cc(N(C)C)ccc34)c(S(=O)(=O)[O-])c1)CC2 (stereo not drawn) [Compound 47, 2-(3,6-bis(dimethylamino)xanthylium-9-yl)-5-(N-(1,2,3,10-tetramethoxy-9-oxo-5,6,7,9-tetrahydrobenzo[a]heptalen-7-yl)sulfamoyl)benzenesulfonate] |  | robust uptake by cells expressing SLCO1A2 | marked uptake |
